Experiments:
SERCA [1] = target: T1, SERCA (Oryctolagus cuniculus, UniProt P04191); assay: Functional potency of PLB variants by ATPase assay (reconstituted SERCA/PLB); type: biochemical; details: shift in pCa for 50% activation of SERCA, 5 PLB/SERCA, mean±SEM
T1 construct: from tissue
Text: (§1) For intermolecular FRET, IAEDANS-SERCA was reconstituted with DABCYL-PLB essentially as described previously (see Reddy et al., (1999) J. Biol. Chem. 274:7649-7655; Reddy et al., (1995) J. Biol. Chem. 270:9390-9397; Reddy et al., (1996) J. Biol. Chem. 271:14964-14970) but adapted to modify the SERCA membrane concentration (molar ratio, SERCA/1000 lipids) and PLB-to-SERCA ratio (molar ratio PLB/SERCA). The desired amount of DABCYL-PLB in methanol and lipids (DOPC and DOPE, 4:1 weight ratio in chloroform) were gently mixed and dried over nitrogen gas to create a thin film. Residual solvent was removed under vacuum and desiccant overnight. Lipids and peptides were solubilized in reconstitution buffer (5 mM MgCl2, 0.1M KCl, 10% glycerol, 20 mM MOPS, pH 7.0) by vortexing thoroughly, followed by mild sonication for 30 seconds to form unilamellar vesicles. C12E8 (2 mg/mg of lipid) was added to the tube. Detergent was removed over a 3 hour period using Biobeads SM2 (25 mg/mg of C12E8). FRET was measured immediately following reconstitution. Samples were frozen until gel electrophoresis.
(§2) ATPase activity was measured using an NADH-linked, enzyme-coupled microtiter plate assay (200 μL/well) as described in Karim et al., (2000) J. Biol. Chem. 276, 38814-9 and Reddy et al., (2003) Biochemistry 42, 4585-92. [Ca2+] was controlled by Ca/EGTA buffering by the method described in Fabiato et al., (1979) J. Physiol. (Paris) 75:463-505. The assays were detected at 340 nm on a Spectramax Plus microplate spectrophotometer (Molecular Devices) at 25° C. in the presence of ionophore A23187 to dissipate the Ca gradient building up across the membranes due to ATPase activity. The data were plotted (V vs pCa) and fitted by the Hill equation: […]
where V is the initial ATPase rate and n is the Hill coefficient. Data were normalized to the maximal rate, Vmax, which was obtained from the fit, and replotted to determine the shift in pKCa.
(§3) Functional potency was measured by ATPase assay as ΔpKCa, which stands for the shift in pCa value required for 50% activation of SERCA, at a ratio of 5 PLB/SERCA. FRET potency was measured as E(5), the energy transfer efficiency found at a ratio of 5 PLB/SERCA (N=4-6, mean±SEM).

SERCA [2] = target: T1, SERCA; assay: FRET potency of PLB variants, IAEDANS-SERCA/DABCYL-PLB; type: binding; details: energy transfer efficiency at 5 PLB/SERCA, mean±SEM
Text: as §1
(§4) The plates were read at 25° C. using a Gemini EM fluorescence microplate reader, with bottom excitation at 350 nm (6 flashes). The spectra were obtained with 10 nm resolution between 420 and 600 nm (PMT sensitivity set to High). Total read time per plate was estimated to be 20 minutes.
The free calcium concentration, [Ca^2+], was controlled by Ca/EGTA buffering, calculated by the method disclosed in Fabiato et al., (1979) J. Physiol. (Paris) 75:463-505. Measurements were conducted in low-Ca (pCa 6.5) buffer (50 mM KCl, 5 mM MgCl2, 0.5 mM EGTA, 210 μM CaCl2, 50 mM MOPS, pH 7.0), where the inhibitory effect of PLB was maximal.
(§5) The fluorescence resonance energy transfer efficiency (E) was calculated from the fractional decrease of steady-state emission of the donor (FD) due to the presence of the acceptor (FDA):
as §3

[3] = system: LNCaP prostate cancer cells; details: administration of thapsigargin; cited from earlier work
SERCA-PLB complex [4] = assay: Competition of LOF PLB mutants with acceptor-labeled active PLB, FRET; type: binding; details: 5 moles each per mole SERCA
Description: as §4, §5
(§6) The competition of WT-PLB and PLB derivatives was assessed by ATPase activity (e.g., Example 11) and FRET assays (e.g., Example 8). A reconstituted sample containing 5 moles of acceptor-labeled active PLB (WT or I40A) and 5 moles of an unlabeled loss-of-function (LOF) mutant (L31A or S16E) per mole of SERCA was compared with a control, a reconstituted sample with 5 moles of an active PLB (WT or I40A) per mole of SERCA. Competition was measured as the fractional decrease in ΔpKCa or FRET efficiency E, due to the presence of the LOF mutant (N=3-6, mean±SEM).

SERCA-PLB complex [5] = assay: Competition of LOF PLB mutants with active PLB, ATPase activity; type: biochemical; details: 5 moles each per mole SERCA
Description: as §2, §6

[6] = competitor vs acceptor-labeled I40A PLB
[7] = competitor vs acceptor-labeled WT PLB

T1 sequence (P04191 1-994 isoform P04191-2): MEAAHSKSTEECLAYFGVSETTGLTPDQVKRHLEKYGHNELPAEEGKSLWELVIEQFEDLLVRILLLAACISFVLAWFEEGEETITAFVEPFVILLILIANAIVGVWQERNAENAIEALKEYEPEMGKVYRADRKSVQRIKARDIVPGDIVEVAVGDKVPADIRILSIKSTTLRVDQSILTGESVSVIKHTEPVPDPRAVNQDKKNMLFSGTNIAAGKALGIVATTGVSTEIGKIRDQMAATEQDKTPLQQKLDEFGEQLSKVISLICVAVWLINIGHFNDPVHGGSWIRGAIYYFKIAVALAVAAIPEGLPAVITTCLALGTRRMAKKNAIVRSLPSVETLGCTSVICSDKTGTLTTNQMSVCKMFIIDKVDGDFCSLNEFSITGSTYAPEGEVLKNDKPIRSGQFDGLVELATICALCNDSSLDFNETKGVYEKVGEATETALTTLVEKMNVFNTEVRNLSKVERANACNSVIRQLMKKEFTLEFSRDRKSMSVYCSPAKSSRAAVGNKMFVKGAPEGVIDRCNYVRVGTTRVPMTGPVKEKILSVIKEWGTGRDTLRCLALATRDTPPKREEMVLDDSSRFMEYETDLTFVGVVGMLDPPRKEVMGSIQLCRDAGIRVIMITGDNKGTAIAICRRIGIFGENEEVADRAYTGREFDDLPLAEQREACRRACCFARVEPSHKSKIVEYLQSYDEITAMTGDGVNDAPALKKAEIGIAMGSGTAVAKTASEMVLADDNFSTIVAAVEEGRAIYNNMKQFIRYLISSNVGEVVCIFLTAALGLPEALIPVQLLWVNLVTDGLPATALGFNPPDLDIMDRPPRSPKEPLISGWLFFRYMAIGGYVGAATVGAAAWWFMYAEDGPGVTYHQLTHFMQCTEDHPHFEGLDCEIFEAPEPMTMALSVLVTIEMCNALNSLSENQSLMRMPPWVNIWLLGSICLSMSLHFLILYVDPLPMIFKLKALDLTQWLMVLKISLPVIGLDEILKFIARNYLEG

| Compound | Functional potency (ΔpKCa) (SERCA [1]) | FRET potency, E(5) (SERCA [2]) | growth of LNCaP prostate cancer cells in mice [3] | FRET relief (fractional decrease in FRET efficiency E) (SERCA-PLB complex [4]; [6]) | FRET relief (fractional decrease in FRET efficiency E) (SERCA-PLB complex [4]; [7]) | Functional relief (fractional decrease in ΔpKCa) (SERCA-PLB complex [5]; competitor vs I40A PLB) | Functional relief (fractional decrease in ΔpKCa) (SERCA-PLB complex [5]; competitor vs WT PLB) |
| --- | --- | --- | --- | --- | --- | --- | --- |
| I40A: PLB derivative, isoleucine to alanine at position 40; monomeric, superinhibitory gain-of-function mutant (MEKVQYLTRSAIRRASTIEMPQQARQKLQNLFINFCLILACLLLICIIVMLL; UniProt P26678 1-52, looked up, variant I40A) | 0.48 ± 0.03 | 0.69 ± 0.03 | – | – | – | – | – |
| C/C=C(/C)C(=O)O[C@H]1C(C)=C2[C@H]([C@@H]1OC(=O)CCCCCCC)[C@@](C)(OC(C)=O)C[C@H](OC(=O)CCC)[C@@]1(O)[C@H]2OC(=O)[C@@]1(C)O [thapsigargin] | – | – | inhibited | – | – | – | – |
| S16E: PLB derivative, serine to glutamate at position 16; loss-of-function (LOF) mutant (MEKVQYLTRSAIRRAETIEMPQQARQKLQNLFINFCLILICLLLICIIVMLL; UniProt P26678 1-52, looked up, variant S16E) | 0.07 ± 0.02 | 0.69 ± 0.02 | – | 0.15 ± 0.08 | 0.27 ± 0.10 | 0.40 ± 0.03 | 0.83 ± 0.05 |
| WT: wild-type phospholamban (PLB), made by solid-phase peptide synthesis | 0.18 ± 0.02 | 0.60 ± 0.03 | – | – | – | – | – |
| L31A: PLB derivative, leucine to alanine at position 31; loss-of-function (LOF) mutant (MEKVQYLTRSAIRRASTIEMPQQARQKLQNAFINFCLILICLLLICIIVMLL; UniProt P26678 1-52, looked up, variant L31A) | 0.05 ± 0.01 | 0.45 ± 0.03 | – | 0.18 ± 0.12 | 0.37 ± 0.06 | 0.47 ± 0.06 | 0.79 ± 0.04 |

— patent US8431356B2, “Fluorescence resonance energy transfer assays for sarco/endoplasmic reticulum calcium atpase and phospholamban” (Regents of the University of Minnesota, priority 2009, dated 2013)
